Patent US20240158446A1, “CYCLIC COMPOUND HAVING SELECTIVE INHIBITORY ACTION ON KRAS OVER HRAS AND NRAS” (CHUGAI SEIYAKU KABUSHIKI KAISHA, priority 2021, published 2024)
Like-named read-outs stand apart in the source and are kept apart here. *1 amine or outer side, *2 acyl side, *3 side chain or, on linkers, in order; H or OH if unused. Where a SMILES comes first, the peptide text is derived from it. Bridges are numbered along the chain shown (N, C = ends). [ ]: non-standard residue; d: D form. The star is where a group is joined. hPhe(3-Cl-4-CF3) = N[C@@H](CCc1ccc(C(F)(F)F)c(Cl)c1)C(=O)O; X3 = CCCN([C@H](C(=O)[*:2])C1CCCC1)[*:1]; NMeGly(cPent) = CN[C@H](C(=O)O)C1CCCC1; NMeD = CN[C@@H](CC(=O)O)C(=O)O; NMeL = CN[C@@H](CC(C)C)C(=O)O; Morpholide = C1CN(*)CCO1; NMeA = CN[C@@H](C)C(=O)O; Ac5c = NC1(C(=O)O)CCCC1; Aze = O=C(O)[C@@H]1CCN1; Sar = CNCC(=O)O

Tests used:
[1] = tested on: human lung cancer strain NCI-H441;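 note: cell proliferation inhibition after four days measured by CellTiter-Glo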
[2] = biological target: GDP-bound NRAS wild-type protein (Homo sapiens, UniProt P01111); assay: Binding to NRAS by surface plasmon resonance (SPR), Single Cycle Kinetics; details: for NRAS/KRAS (ratio of KD value for NRAS to KD value for KRAS): SPR, GDP-bound NRAS wild-type protein vs GDP-bound KRAS wild-type protein; for NRAS/KRAS (ratio of KD value with respect to GDP-bound NRAS wild-type protein to KD value with respect to KRAS): SPR KD ratio NRAS/KRAS, class symbols
Sequence of GDP-bound NRAS wild-type protein (P01111 whole entry): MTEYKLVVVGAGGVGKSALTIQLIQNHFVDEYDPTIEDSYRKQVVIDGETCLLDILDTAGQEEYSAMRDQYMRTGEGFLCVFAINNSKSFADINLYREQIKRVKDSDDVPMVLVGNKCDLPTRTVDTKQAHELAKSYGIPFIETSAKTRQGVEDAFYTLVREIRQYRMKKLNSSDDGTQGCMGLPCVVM

[3] = biological target: GDP-bound KRAS wild-type protein (Homo sapiens, UniProt P01116); assay: Binding to KRAS by surface plasmon resonance (SPR), Single Cycle Kinetics; details: GDP-bound KRAS wild-type protein
Sequence of GDP-bound KRAS wild-type protein (P01116 whole entry): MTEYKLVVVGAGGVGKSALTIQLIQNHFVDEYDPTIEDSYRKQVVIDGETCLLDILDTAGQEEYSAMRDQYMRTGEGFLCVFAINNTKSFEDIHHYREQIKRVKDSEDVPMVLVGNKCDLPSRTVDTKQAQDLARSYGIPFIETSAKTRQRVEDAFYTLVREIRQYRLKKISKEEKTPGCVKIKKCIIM

[4] = biological target: GDP-bound HRAS wild-type protein (Homo sapiens, UniProt P01112); assay: Binding to HRAS by surface plasmon resonance (SPR), Single Cycle Kinetics; details: for HRAS/KRAS (ratio of KD value for HRAS to KD value for KRAS): SPR, GDP-bound HRAS wild-type protein vs GDP-bound KRAS wild-type protein; for HRAS/KRAS (ratio of KD value with respect to GDP-bound HRAS wild-type protein to KD value with respect to KRAS): SPR KD ratio HRAS/KRAS, class symbols
Sequence of GDP-bound HRAS wild-type protein (P01112 whole entry): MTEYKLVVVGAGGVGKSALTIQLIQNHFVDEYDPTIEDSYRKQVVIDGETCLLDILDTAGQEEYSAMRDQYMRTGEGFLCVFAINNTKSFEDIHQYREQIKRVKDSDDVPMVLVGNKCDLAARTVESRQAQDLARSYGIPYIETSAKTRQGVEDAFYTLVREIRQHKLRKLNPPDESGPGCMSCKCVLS

[5] = SPR, Single Cycle Kinetics, 1:1 binding model, read-out: KRAS KD
[6] = SPR Single Cycle Kinetics, 1:1 binding model, read-out: KRAS KD
[7] = SPR, Single Cycle Kinetics, read-out: KRAS KD

Row | IC50 [1] [nM] | Kd [3, 5] [M] | Kd [3, 6] [M] | Kd [3, 7] [M] | Structure (SMILES) | NRAS/KRAS (ratio of KD value for NRAS to KD value for KRAS) ([2]; KD ratio class) | HRAS/KRAS (ratio of KD value for HRAS to KD value for KRAS) ([4]; KD ratio class) | NRAS/KRAS (ratio of KD value with respect to GDP-bound NRAS wild-type protein to KD value with respect to KRAS) [2] | HRAS/KRAS (ratio of KD value with respect to GDP-bound HRAS wild-type protein to KD value with respect to KRAS) [4] | NRAS/KRAS (ratio of KD value for NRAS to KD value for KRAS) [2] | HRAS/KRAS (ratio of KD value for HRAS to KD value for KRAS) [4] | Kd ([3]; KRAS KD (M), SPR Single Cycle Kinetics, 1:1 binding model) [M]
1 | 61.4 | – | 1e-09 | – | CCC[C@H]1C(=O)N[C@@H]([C@@H](C)CC)C(=O)N2CCC[C@H]2C(=O)N(C)[C@H]2C/C=C\CCN(C2=O)[C@@H](Cc2ccc(C(F)F)cc2)C(=O)N(C)CC(=O)N[C@@H](CCc2ccc(Cl)c(Cl)c2)C(=O)N2C[C@H](OCC)C[C@H]2C(=O)NC2(CC(C)(C)C2)C(=O)N(C)[C@@H](C(CC)CC)C(=O)N(C)[C@H](C(=O)N(C)C)CC(=O)N1C [PP2637] | – | – | AA (a compound having 20 or more is denoted as AA) | A (a compound having 10 or more and less than 20 is denoted as A) | – | – | –
2 | 50.9 | – | – | 3.7e-10 | CCCOC[C@H]1C(=O)N[C@@H]([C@@H](C)OCC)C(=O)N(C)CC(=O)N(C)[C@H]2C/C=C\CCN(C2=O)[C@@H](Cc2ccc(C)cc2)C(=O)N(C)CC(=O)N[C@@H](CCc2cc(F)c(C(F)(F)F)c(F)c2)C(=O)N2C[C@@H](C)C[C@H]2C(=O)NC2(CC(C)(C)C2)C(=O)N(C)[C@@H](C2CCCC2)C(=O)N(C)[C@H](C(=O)N(C)CC)CC(=O)N1C [PP2424] | – | – | – | – | A (a compound having 10 or more and less than 20 is denoted as A) | A (a compound having 10 or more and less than 20 is denoted as A) | –
3 | 18.8 | – | – | 1.2e-10 | CC[C@H](C)[C@@H]1NC(=O)[C@H](COC)N(C)C(=O)C[C@@H](C(=O)N(C)CC)N(C)C(=O)[C@H](C2CCCC2)N(C)C(=O)C2(CC(C)(C)C2)NC(=O)[C@@H]2C[C@H](C)CN2C(=O)[C@H](CCc2cc(F)c(C(F)(F)F)c(F)c2)NC(=O)CN(C)C(=O)[C@H](Cc2ccc(C)cc2)N2CC/C=C\C[C@@H](C2=O)N(C)C(=O)CN(C)C1=O [PP2437] | – | – | – | – | A (a compound having 10 or more and less than 20 is denoted as A) | A (a compound having 10 or more and less than 20 is denoted as A) | –
4 | 7.5 | – | 6.1e-11 | – | CCOC[C@H]1C(=O)N[C@@H]([C@@H](C)CC)C(=O)N(C)CC(=O)N(C)[C@H]2C/C=C\CCN(C2=O)[C@@H](Cc2ccc(C(F)(F)F)cc2)C(=O)N(C)CC(=O)N[C@@H](CCc2ccc(C(F)(F)F)c(OC)c2)C(=O)N2C[C@H](OCC)C[C@H]2C(=O)NC2(CC(C)(C)C2)C(=O)N(C)[C@@H](CC(C)(C)C)C(=O)N(C)[C@H](C(=O)N(C)C)CC(=O)N1C [PP2736] | – | – | A (a compound having 10 or more and less than 20 is denoted as A) | A (a compound having 10 or more and less than 20 is denoted as A) | – | – | –

The next lines start with the compound.

Row | Structure (SMILES) | IC50 [1] [nM] | Kd [3, 5] [M] | Kd [3, 6] [M] | Kd [3, 7] [M] | NRAS/KRAS (ratio of KD value for NRAS to KD value for KRAS) ([2]; KD ratio class) | HRAS/KRAS (ratio of KD value for HRAS to KD value for KRAS) ([4]; KD ratio class) | NRAS/KRAS (ratio of KD value with respect to GDP-bound NRAS wild-type protein to KD value with respect to KRAS) [2] | HRAS/KRAS (ratio of KD value with respect to GDP-bound HRAS wild-type protein to KD value with respect to KRAS) [4] | NRAS/KRAS (ratio of KD value for NRAS to KD value for KRAS) [2] | HRAS/KRAS (ratio of KD value for HRAS to KD value for KRAS) [4] | Kd ([3]; KRAS KD (M), SPR Single Cycle Kinetics, 1:1 binding model) [M]
5 | CCO[C@@H]1C[C@H]2C(=O)NC3(CCC3)C(=O)N(C)[C@@H](C3CCCC3)C(=O)N(C)[C@H](C(=O)N(C)C)CC(=O)N(C)[C@@H](CC)C(=O)N[C@@H](C3CCC3)C(=O)N(C)CC(=O)N(C)[C@H]3C/C=C\CCN(C3=O)[C@@H](Cc3ccc(C(F)(F)F)cc3)C(=O)N(C)CC(=O)N[C@@H](CCc3cc(F)c(C(F)(F)F)c(F)c3)C(=O)N2C1 [PP1269, (2S,8S,12R,14S,20S,23S,27S,30S,36S,38Z)-30-cyclobutyl-20-cyclopentyl-8-[2-[3,5-difluoro-4-(trifluoromethyl)phenyl]ethyl]-12-ethoxy-27-ethyl-N,N,4,19,22,26,32,35-octamethyl-3,6,9,15,18,21,25,28,31,34,42-undecaoxo-2-[[4-(trifluoromethyl)phenyl]methyl]spiro[1,4,7,10,16,19,22,26,29,32,35-undecazatricyclo[34.5.1.0^10,14]dotetracont-38-ene-17,1′-cyclobutane]-23-carboxamide] | 29 | 9.1e-11 | – | – | A (a compound having 10 or more and less than 20 is denoted as A) | B (a compound having 3 or more and less than 10 is denoted as B) | – | – | – | – | –
6 | CCO[C@@H]1C[C@H]2C(=O)NC3(CCCC3)C(=O)N(C)[C@@H](C3CCCC3)C(=O)N(C)[C@H](C(=O)N(C)C)CC(=O)N(C)[C@@H](CC)C(=O)N[C@@H]([C@@H](C)CC)C(=O)N(C)CC(=O)N(C)[C@H]3C[C@@H](C)[C@@H](C)CN(C3=O)[C@@H](Cc3ccc(C(F)(F)F)cc3)C(=O)N(C)CC(=O)N[C@@H](CCc3ccc(C(F)(F)F)c(Cl)c3)C(=O)N2C1 [PP1358] | 4.1 | 3e-11 | – | – | A (a compound having 10 or more and less than 20 is denoted as A) | B (a compound having 3 or more and less than 10 is denoted as B) | – | – | – | – | –
7 | CCCN1C(=O)[C@@H]2CCN2C(=O)[C@H](C)N(C)C(=O)[C@H]([C@@H](C)CC)NC(=O)[C@H](CC(C)C)N(C)C(=O)C[C@@H](C(=O)N2CCOCC2)N(C)C(=O)[C@H](C2CCCC2)N(C)C(=O)C2(CCCC2)NC(=O)[C@@H]2CCCN2C(=O)[C@H](CCc2ccc(C(F)(F)F)c(Cl)c2)NC(=O)CN(C)C(=O)[C@@H]1C1CCCC1 [PP0054] ([NMeL]I[NMeA][Aze][X3][Sar][hPhe(3-Cl-4-CF3)]P[Ac5c][NMeGly(cPent)][NMeD]-Morpholide; lactam N-11) | 82 | – | – | – | – | – | – | – | C (A compound having a KD ratio of 0.1 or more and less than 3 is denoted as C) | C (A compound having a KD ratio of 0.1 or more and less than 3 is denoted as C) | 4.5e-09
8 | CC[C@H](C)[C@@H]1NC(=O)[C@H](CC)N(C)C(=O)C[C@@H](C(=O)N(C)C)N(C)C(=O)[C@H](C2CCCC2)N(C)C(=O)C2(CCC2)NC(=O)[C@H](C)N(C)C(=O)[C@H](CCc2cc(F)c(C(F)(F)F)c(F)c2)NC(=O)CN(C)C(=O)[C@H](Cc2ccc(C(F)(F)F)cc2)N2CC/C=C\C[C@@H](C2=O)N(C)C(=O)CN(C)C1=O [PP1146] | 202 | – | – | 3.2e-10 | – | – | – | – | A (a compound having 10 or more and less than 20 is denoted as A) | B (a compound having 3 or more and less than 10 is denoted as B) | –
9 | CCO[C@@H]1C[C@H]2C(=O)NC3(CCC3)C(=O)N(C)[C@@H](C3CCCC3)C(=O)N(C)[C@H](C(=O)N(C)C)CC(=O)N(C)[C@@H](CC3CC3)C(=O)N[C@@H]([C@@H](C)CC)C(=O)N(C)CC(=O)N(C)[C@H]3C/C=C\CCN(C3=O)[C@@H](Cc3ccc(F)cc3)C(=O)N(C)CC(=O)N[C@@H](CCc3ccc4sccc4c3)C(=O)N2C1 [PP1426] | 475 | 1e-09 | – | – | A (a compound having 10 or more and less than 20 is denoted as A) | B (a compound having 3 or more and less than 10 is denoted as B) | – | – | – | – | –
